Data: patent US8158803B2, “Heterocyclic antiviral compounds” (Roche Palo Alto LLC, priority 2009, dated 2012)
Where two headings read alike, the source gives them in different places.

Key:
[1] = target: T1, HCV polymerase (NS5B570n-Con1) (Hepatitis C virus genotype 1b, UniProt Q9WMX2); experiment: HCV NS5B RNA polymerase activity assay; type: biochemical, HCV Con1 strain
T1 construct: contains a 21 amino acid deletion at the C-terminus relative to the full-length HCV polymerase; 6-histidine (N); made in house; host or cells: E. coli BL21(DE) pLysS, plasmid pET17b
Method: The enzymatic activity of HCV polymerase (NS5B570n-Con1) was measured as the incorporation of radiolabeled nucleotide monophosphates into acid insoluble RNA products. Unincorporated radiolabeled substrate was removed by filtration and scintillant was added to the washed and dried filter plate containing radiolabeled RNA product. The amount of RNA product generated by NS5B570-Con1 at the end of the reaction was directly proportional to the amount of light emitted by the scintillant.
The N-terminal 6-histidine tagged HCV polymerase, derived from HCV Con1 strain, genotype 1b (NS5B570n-Con1) contains a 21 amino acid deletion at the C-terminus relative to the full-length HCV polymerase and was purified from E. coli strain BL21(DE) pLysS. The construct, containing the coding sequence of HCV NS5B Con1 (GenBank accession number AJ242654) was inserted into the plasmid construct pET17b, downstream of a T7 promoter expression cassette and transformed into E. coli. A single colony was grown overnight as a starter culture and later used inoculate 10 L of LB media supplemented with 100 μg/mL ampicillin at 37° C. Protein expression was induced by the addition of 0.25 mM isopropyl-β-D-thiogalactopyranoside (IPTG) when optical density at […] of the culture was between 0.6 and 0.8 and cells were harvested after 16 to 18 h at 30° C. NS5B570n-Con1 was purified to homogeneity using a three-step protocol including subsequent column chromatography on Ni-NTA, SP-Sepharose HP and Superdex 75 resins.
Reaction mixtures were assembled in 96-well filter plates (cat #MADVN0B, Millipore Co.) and incubated for 2 h at 30° C. Reactions were stopped by addition of 10% final (v/v) trichloroacetic acid and incubated for 40 min at 4° C. […]
The amount of light emitted from the scintillant was converted to counts per minute (CPM) on a Topcount® plate reader (Perkin-Elmer, Energy Range: Low, Efficiency Mode Normal, Count Time: 1 min, Background Subtract: none, Cross talk reduction: Off).
Data was analyzed in Excel® (Microsoft) and ActivityBase® (Idbs®). […] All data was expressed as a percentage of the positive control. […]

[2] = in vitro; settings: human
[3] = test system: genotype 1b HCV replicon in Huh7 cell line 2209-23; experiment: HCV replicon assay (Renilla luciferase reporter); type: cell-based; settings: 2209-23 cells, three days incubation
[4] = test system: HCV; settings: cited from earlier work
[5] = test system: HCV replicon cells (2209-23); settings: read-out: Cytotoxicity CC50; 2209-23 cells, WST-1

Which melting point does the source give for `CC(C)(C)c1cc(-c2ccc[nH]c2=O)cc(C2CC2c2ccc(NS(C)(=O)=O)cc2)c1` (centres unmarked) [Compound I-1, N-(4-{2-[3-tert-Butyl-5-(2-oxo-1,2-dihydro-pyridin-3-yl)-phenyl]-cyclopropyl}-phenyl)-methanesulfonamide] here?
The melting point was 162 to 164 °C.

What about the IC50 [1] of the same molecule?
Its IC50 is 21 nM.

Which CC50 [2] does the source give for `COc1c(C2CC2c2ccc(NS(C)(=O)=O)cc2)cc(-c2ccc[nH]c2=O)cc1C(C)(C)C` (centres unmarked) [Compound I-2, N-(4-{2-[3-tert-Butyl-2-methoxy-5-(2-oxo-1,2-dihydro-pyridin-3-yl)-phenyl]-cyclopropyl}-phenyl)-methanesulfonamide] here?
The CC50 was 15000 nM.

And the IC50 ([3]; Hepatitis C virus, Huh-7, 72 h)?
The IC50 was 109 nM.

For `CC(C)(C)c1cc(-c2ccc[nH]c2=O)c(O)c(C2CC2c2ccc(NS(C)(=O)=O)cc2)c1` (centres unmarked) [Compound I-3, N-(4-{2-[5-tert-Butyl-2-hydroxy-3-(2-oxo-1,2-dihydro-pyridin-3-yl)-phenyl]-cyclopropyl}-phenyl)-methanesulfonamide], which melting point is on record?
Its melting point is 148 to 150 °C.

And the IC50 [1]?
Its IC50 is 12 nM.

Which toxicity ([4]; human, in vivo) does the source give for `NC(=O)c1ncn([C@@H]2O[C@H](CO)[C@@H](O)[C@H]2O)n1` [ribavirin, 1-((2R,3R,4S,5R)-3,4-Dihydroxy-5-hydroxymethyl-tetrahydro-furan-2-yl)-1H-[1,2,4]triazole-3-carboxylic acid amide] here?
Its toxicity is “exhibits significant toxicity and is known to induce anemia”.

What about the “patients with serum amino transferase levels reduced to normal” value ([4]; monotherapy) of the same molecule?
Its value is 40%.

What does the source list for “N-(6-{2-[3-tert-Butyl-6-hydroxy-2-methoxy-5-(2-oxo-1,2-dihydro-pyridin-3-yl)-phenyl]-cyclopropyl}-pyridin-3-yl)-methanesulfonamide [Compound I-4]”?
IC50 [3]: 78 nM; CC50 [5]: 32800 nM; IC50 ([1]; NS5B570n-Con1, genotype 1b, read-out: IC50 HCV Polymerase Assay): 8 nM
